Assay results reported in EPA's ToxValDB 9.5.
Values after ≈ are worked out from the molar mass of the structure shown.

Key:
Bovidae = details: subchronic; duration: 57 days; oral; diet; no effects
Gallus gallus = details: subchronic, oral, diet
Sus scrofa = details: subchronic; duration: 42 days; oral; diet; M/F; Not specified; body weight
Pontoscolex corethrurus = details: acute; mortality
Daphnia magna = details: acute, mortality
Apis mellifera = details: acute; oral; unspecified; mortality
Mus musculus = details: for NOAEL: chronic
Tagia sp. = details: acute; mortality
Anas platyrhynchos = details: short-term; oral; feed; mortality
Canidae = details: Dog Other; for NOAEL: oral
[1] = acute, duration: 96 hours, mortality
[2] = subchronic, duration: 90 days, oral, hematological
[3] = duration: 21 months, M, hematological
[4] = duration: 23 months, F, hematological

With `COC(=O)[C@H](Cc1ccccc1)NC(=O)[C@H](CC(=O)O)NCCCc1ccc(OC)c(O)c1.O` the NOAEL (Oryctolagus sp.; reproduction developmental, duration: 22 days, oral, gavage, F, New Zealand, clinical signs) was 500 mg/kg-day.

With `CSCCC(O)C(=O)[O-].CSCCC(O)C(=O)[O-].[Zn+2]` (configuration not stated) the LEL (Bovidae) was 450 mg/kg-day, the LEL (Gallus gallus; duration: 8 weeks, clinical chemistry) was 450 mg/kg-day and the LEL (Gallus gallus; duration: 35 days, Chicken, body weight) was 450 mg/kg-day. For the same molecule, the LEL (Sus scrofa) was 450 mg/kg-day.

`O=C(O)c1cn[nH]c1C(F)F` [1H-3-Difluoromethylpyrazole-4-carboxylic acid] gave an NOAEL (Oryctolagus sp.; reproduction developmental, body weight) of 300 mg/kg-day.

Molecule `COc1nc(C)nc(N)n1` [2-Methyl-4-amino-6-methoxy-s-triazine] has an LD50 (acute, dermal, F, mortality) of 1000 mg/kg and an LC50 (acute, inhalation, mortality) of over 5.2 µg/mL.

`CCC=C(C)C(=O)O` [2-Methylpent-2-en-1-oic acid] gave an LC50 (Pontoscolex corethrurus) of 2040 mg/kg.

`Nc1ccc(Cl)c(Cl)c1` [3,4-Dichloroaniline] gave an LD50 (Colinus virginianus; acute, oral, mortality) of 99.1 mg/kg-day.

With `CCCC(=O)C(CC)Sc1ccoc1C` (configuration not stated) [3-(2-Methyl-3-furylthio)-4-heptanone] the NOAEL (subchronic, duration: 90 days) was 3.76 mg/kg-day, the NOAEL (Rattus norvegicus; subchronic, duration: 90 days, oral, diet) was 3.76 mg/kg-day and the NOAEL (Rattus norvegicus; subchronic, duration: 90 days, oral, diet, M/F, no effects) was 3.76 mg/kg-day.

`CSCc1ccsc1` [3-(Methylthio)methylthiophene] gave an NOAEL (repeat dose other) of 0.29 mg/kg-day and an NOAEL (Rattus norvegicus; subchronic, duration: 90 days) of 0.29 mg/kg-day.

For `CC(=O)c1cc(C)sc1C` [3-Acetyl-2,5-dimethylthiophene], the LC50 (Daphnia magna) was 6.95 µg/mL (≈ 45.1 µM).

`COc1cc(CCC(C)=O)ccc1O` [4-(4-Hydroxy-3-methoxyphenyl)-2-butanone] showed an LC50 (Pontoscolex corethrurus) of 346 mg/kg.

With `c1cnc2c(n1)CCCC2` [5,6,7,8-Tetrahydroquinoxaline] the LC50 (Pontoscolex corethrurus) was 238 mg/kg.

In the case of `Cc1cccc2nccnc12` [5-Methylquinoxaline], the LC50 (Pontoscolex corethrurus) was 272 mg/kg.

With `Oc1cccc2cccnc12` [8-Hydroxyquinoline] the LD50 (Apis mellifera) was over 68.6 µg/piece, the LD50 (Colinus virginianus; acute, oral, diet, mortality) was over 1070 mg/kg-day and the LD50 (Colinus virginianus; acute, oral, mortality) was 311 mg/kg. For the same molecule, the LD50 (Mus musculus; acute, oral, mortality) was 177 mg/kg, the LC50 (Oncorhynchus mykiss; [1]) was 2 µg/mL (≈ 13.8 µM) and the NOAEL (Oryctolagus sp.; developmental, development) was 5 mg/kg-day. For the same molecule, the NOAEL (Rattus norvegicus; chronic, duration: 2 years, body weight) was 73.3 mg/kg-day, the NOAEL (Rattus norvegicus; [2]) was 97.7 mg/kg-day and the LC50 (Tagia sp.) was over 409 mg/kg.

`CC/C=C\CCCCC=O` [(Z)-Non-6-enal] gave an LC50 (Daphnia magna) of 8 µg/mL (≈ 57.1 µM) and an LC50 (Pontoscolex corethrurus) of 191 mg/kg.

Molecule `CCN(CC)c1ccc(C(=C2C=CC(=[N+](CC)CC)C=C2)c2cc(O)c(S(=O)(=O)[O-])cc2S(=O)(=O)[O-])cc1.CCN(CC)c1ccc(C(=C2C=CC(=[N+](CC)CC)C=C2)c2cc(O)c(S(=O)(=O)[O-])cc2S(=O)(=O)[O-])cc1.[Ca+2]` [Acid Blue 3] has an NOAEL (Mus musculus; [3]) of 500 mg/kg-day and an NOAEL (Mus musculus; [4]) of 500 mg/kg-day.

With `COC(=O)CCC(=O)O[C@H]1CC(C)(C)C(/C=C/C(C)=C/C=C/C(C)=C/C=C/C=C(C)/C=C/C=C(C)/C=C/C2=C(C)C(=O)[C@@H](OC(=O)CCC(=O)OC)CC2(C)C)=C(C)C1=O` [Astaxanthin dimethylsuccinate] the NOAEL (Mus musculus; duration: 80 weeks, oral, body weight) was 14 mg/kg-day and the LEL (Oncorhynchus mykiss; chronic/long-term, duration: 8 weeks, oral, feed, no effects) was 908 mg/kg.

Molecule `CCCCC(CC)COC(=O)C1CCC(C(=O)OCC(CC)CCCC)CC1` (configuration not stated) [Bis(2-ethylhexyl) cyclohexane-1,4-dicarboxylate] has an NOAEL (subchronic, duration: 90 days, oral, no effects) of 1000 mg/kg-day.

In the case of `CCOC(=O)C(CC)C(C)=O` (configuration not stated) [Butanoic acid, 2-ethyl-3-oxo-, ethyl ester], the NOAEL (repeat dose other, development) was 600 mg/kg-day.

Work on `O=S(=O)([O-])c1cc(S(=O)(=O)[O-])c2c(N=Nc3ccc(S(=O)(=O)[O-])c4ccccc34)c(O)ccc2c1.[Na+].[Na+].[Na+]` [C.I. Acid Red 18, trisodium salt] yielded an NOAEL (Mus musculus; duration: 82 weeks, oral, diet, M/F, neurology) of 70 mg/kg-day.

Molecule `CCN(CC)c1ccc(C(=C2C=CC(=[N+](CC)CC)C=C2)c2cc(O)c(S(=O)(=O)[O-])cc2S(=O)(=O)[O-])cc1.[Na+]` [C.I. Food Blue 5:2] has an NOAEL (Mus musculus; [3]) of 500 mg/kg-day and an NOAEL (Mus musculus; [4]) of 500 mg/kg-day.

Work on `CC(O)C(=O)[O-].CC(O)C(=O)[O-].[Ca+2]` (configuration not stated) [Calcium lactate] yielded an LEL (Gallus gallus; duration: 42 days, Chicken, no effects) of 30000 mg/kg-day.

`C1CCC(SSC2CCCCC2)CC1` [Dicyclohexyl disulfide] gave an NOAEL (subchronic, duration: 90 days, oral) of 0.23 mg/kg-day.

`c1ccc(Nc2ccccc2)cc1` [Diphenylamine] gave an LC50 (Anas platyrhynchos) of 2290 mg/kg-day, an NOAEL (Canidae; chronic, duration: 1 years, clinical chemistry) of 10 mg/kg-day and an NOAEL (Canidae; chronic, duration: 1 years, hematological) of 10 mg/kg-day. It also gave an NOAEL (Canidae; subchronic, duration: 90 days, clinical chemistry) of 10 mg/kg-day, an NOAEL (Canidae; subchronic, duration: 90 days, hematological) of 10 mg/kg-day and an LD50 (Colinus virginianus; acute, oral, mortality) of over 2250 mg/kg-day. For the same molecule, the NOEC (Daphnia magna; duration: 48 hours) was under 0.38 mg/L, the LC50 (Oncorhynchus mykiss; [1]) was 2.2 µg/mL (≈ 13 µM) and the NOEC (Oncorhynchus mykiss; [1]) was 0.71 mg/L. The NOAEL (Rattus norvegicus; chronic, duration: 2 years, hematological) was 7.5 mg/kg-day, the NOAEL (Rattus norvegicus; subchronic, duration: 90 days, oral, clinical chemistry) was 9.6 mg/kg-day and the NOAEL (Rattus norvegicus; [2]) was 9.6 mg/kg-day.

Work on `CCO` [Ethanol] yielded an LC50 (Oncorhynchus mykiss; acute, duration: 24 hours, mortality) of 11200 µg/mL (≈ 243000 µM) and an NOAEL (Rattus norvegicus; subchronic, duration: 90 days, oral, gavage, organ weight) of 1730 mg/kg-day.

With `CCCSP(=O)(OCC)SCCC` [Ethoprop] the NOEL (Colinus virginianus; reproduction developmental, mortality) was 0.088 mg/kg-day and the NOEL (Rattus norvegicus; chronic) was 7.3 mg/kg-day.

With `CCOc1ccc2c(c1)C(C)=CC(C)(C)N2` [Ethoxyquin] the NOEL (Canidae; subchronic, duration: 90 days, clinical signs) was 2 mg/kg-day, the LC50 (Colinus virginianus; acute, oral, diet, mortality) was over 2420 mg/kg-day and the NOEC (Colinus virginianus; short-term, oral, diet) was 1500 mg/kg-day. It also gave an LC50 (Oncorhynchus mykiss; [1]) of 18 µg/mL (≈ 82.8 µM) and an LD50 (Rattus norvegicus; acute, oral, mortality) of 1730 mg/kg-day.
